Active and inactive are the calls of the source. The rule behind the calls is not given here.

As a reminder, the EC50 is the concentration giving half of the maximal effect.

For this assay, the system named is Leishmania major promastigote growth inhibition. The assay can be described thus: antileishmanial activity against L. major promastigotes – EC50, dose response (AID 2008).
For `Cc1cccc(-c2cc3c(N=O)c4ccccc4c-3n[nH]2)c1`, the EC50 was 1540 nM. The result for `CCCCCCCCC[n+]1cccc2c3ccccc3ccc21` reads 2.45 nM; that for `COc1ccc(S(=O)(=O)Nc2ccc(O)c3ccccc23)cc1`, 268 nM; that for `CN(C)CCOc1ccccc1Cc1ccccc1`, 498 nM.

Take `O=c1c(Cl)nc2cc(Cl)ccc2n1CCNc1ncc(C(F)(F)F)cc1Cl`: the EC50 is 512 nM.

Regarding `CC1(C)C(=O)C=C[C@]2(C)[C@H]3CC[C@@]4(C)[C@H](c5ccoc5)OC(=O)[C@H]5O[C@]54[C@]3(C)[C@H](O)C[C@@H]12`, the EC50 is 982 nM. `O=C1C2ON(c3ccc(Br)cc3)C(c3cccnc3)C2C(=O)N1C1CCCCC1` (centres undefined): the EC50 is 513 nM.

For the molecule `COC(=O)CNc1nc(-c2ccccc2F)nc2ccccc12`, the EC50 was 742 nM. Consider `O=C(c1cccnc1)N(c1cc2sc(=O)oc2c2ccccc12)S(=O)(=O)c1ccccc1`, for which the EC50 was 191 nM. As for `N#CC(c1cccc(Cl)c1)c1ccc2c(C(F)(F)F)cc(C(F)(F)F)nc2n1` (centres undefined), the figure is 1180 nM. The result for `COc1ccc(C2=NCC(CSc3nnc(-c4ccc5c(c4)OCO5)o3)S2)cc1` (centres undefined) reads 187 nM; that for `CSc1ccc(CNC2CN3CCC2CC3)cc1` (centres undefined), 1140 nM; that for `O=C1C2CCN(CC2)C1Cc1ccc(OCCOc2ccccc2)cc1` (centres undefined), 272 nM.

As for `Cc1[nH]c2c(Cl)cccc2c(=O)c1CN1CCCC1`, the EC50 is 390 nM. Turning to `Cc1cc(C)c2c(c1)-c1cc(C)nn1C(c1ccc3c(c1)OCO3)N2` (centres undefined), the EC50 is 1320 nM.

`CNc1ccccc1C(C)(C)c1cc(-c2cccc(Br)c2)no1`: the EC50 is 2780 nM. The result for `Cc1ccc2nc(Cl)c3nnnn3c2c1` reads 765 nM; that for `Cc1cc(C)nc(/N=c2/ssnc2Cl)c1`, 353 nM; that for `CCn1nc(/C=C/c2ccccc2)nc2c(=O)n(C)c(=O)nc1-2`, > 5000 nM (inactive). With `Cc1ccc2nc3cc([N+](=O)[O-])cc([N+](=O)[O-])c3cc2c1`, the EC50 was 288 nM.

`O=Nc1c2cc(-c3ccccc3)[nH]nc-2c2ccccc12`: the EC50 was 2210 nM. As for `CC(C)(C)c1ccc(C(=O)C2CCCN(C3CCC3)C2)cc1` (centres undefined), the figure is 10.7 nM; as for `COC(=O)C1CN(C#N)N(c2ccc(Cl)cc2)C12c1ccccc1-c1ccccc12` (centres undefined), 72.9 nM; as for `CC[n+]1c(/C=C/N(C)c2ccccc2)sc2ccc(Cl)cc21`, 172 nM. As for `Nc1cccc2nc3ccccc3cc12`, the EC50 was 635 nM. The result for `O=C(NCC(c1cccnc1)N1CCN(c2ccc(F)cc2)CC1)Oc1ccccc1` (centres undefined) reads 111 nM; that for `O=C(COc1ccccc1F)NC1CCN(Cc2ccccc2)CC1`, 140 nM. The result for `N=C(N)c1ccc(OCCCCCOc2ccc(C(=N)N)cc2)cc1` reads 45.1 nM.

With `O=[N+]([O-])c1ccc(-c2nc(-c3cccs3)c(-c3cccs3)[nH]2)cc1`, the EC50 was 1970 nM.

For `COC(=O)c1cccc(Cn2c(Cl)c(/C=N/Nc3ccccc3C)sc2=O)c1`, the EC50 was 528 nM.

In the case of `COc1ccccc1-n1cnc2c(c1=O)c1nc3ccccc3nc1n2-c1ccc(C)c(C)c1`, the EC50 was 81.8 nM. `C=CCn1cccc(/C=C/C(=O)c2ccc(C(C)(C)C)cc2)c1=S`: the EC50 was 1790 nM. As for `CC12CCC(C(=O)N(CCCN3CCN(Cc4ccccc4)CC3)C1=O)C2(C)C` (centres undefined), the figure is 565 nM; as for `Cc1ccc(NC(=O)N2CCCN(Cc3ccc(F)cc3)C2)cc1C`, 2940 nM.

On to `CCCCCCCCCCCCCCCC[n+]1cccc(C(=O)N(CC)CC)c1`, for which the EC50 is 625 nM.

On to `O=C(c1ccccc1)c1c2c(cc3sc4ccccc4[n+]13)-c1cccc3cccc-2c13`, for which the EC50 was 504 nM.

Consider `CCOC(=O)C(=Cc1cc(=O)c(OC)co1)C(=O)OCC`, for which the EC50 is 165 nM. As for `Cc1ccc(S(=O)(=O)c2ccc(Oc3cccc(C)c3)cc2)cc1`, the figure is 178 nM; as for `O=C(Nc1ccc(Cl)cn1)c1ccc([N+](=O)[O-])o1`, 205 nM.
